Tests used:
[1] = target: T1, human cloned 5-HT2C receptor, expressed in CHO cells (Homo sapiens, UniProt P28335); assay: In vitro binding affinity for 5-HT2C receptor ([3H]mesulergine radioligand binding); conditions: human cloned 5-HT2C receptor; for IC50: read-out: 5-HT2C pIC50 (converted)
T1 construct: expressed in transfected cells; host or cells: CHO cells
T1 sequence (P28335 33-458): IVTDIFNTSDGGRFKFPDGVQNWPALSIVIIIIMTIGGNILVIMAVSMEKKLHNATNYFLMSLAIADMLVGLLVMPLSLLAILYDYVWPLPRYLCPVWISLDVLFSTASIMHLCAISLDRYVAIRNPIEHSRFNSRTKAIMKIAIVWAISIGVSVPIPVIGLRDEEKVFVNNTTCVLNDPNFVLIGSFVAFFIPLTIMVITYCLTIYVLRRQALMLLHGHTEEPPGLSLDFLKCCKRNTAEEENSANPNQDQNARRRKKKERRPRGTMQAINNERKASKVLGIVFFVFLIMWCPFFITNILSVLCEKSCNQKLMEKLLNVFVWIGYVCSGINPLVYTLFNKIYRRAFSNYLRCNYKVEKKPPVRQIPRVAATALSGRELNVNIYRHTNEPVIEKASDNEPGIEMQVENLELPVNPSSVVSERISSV
Experimental: In Vitro Binding Affinity for 5-HT2A and 5-HT2C Receptors
The interaction of the compounds of Formula (I) with 5-HT2A and 5-HT2C receptors was assessed in in vitro radioligand binding experiments. […] During the incubation, the radioligands bind to the receptor. When equilibrium of binding is reached, the receptor bound radioactivity is separated from the non-bound radioactivity, and the receptor bound activity is counted. The interaction of the test compounds with the receptors is assessed in competition binding experiments. Various concentrations of the test compound are added to the incubation mixture containing the tissue preparation and the radioligand. Binding of the radioligand will be inhibited by the test compound in proportion to its binding affinity and its concentration.

[2] = target: T2, human Dopamine D2L receptor (Homo sapiens, UniProt P14416); assay: In vitro binding affinity for human D2L receptor ([3H]Spiperone binding); conditions: human D2L receptor-transfected CHO cell membranes; for IC50: read-out: D2L pIC50 (converted)
T2 construct: expressed in transfected cells; host or cells: CHO cells
Experimental: In Vitro Binding Affinity for Human D2L Receptor
Frozen membranes of human Dopamine D2L receptor-transfected CHO cells were thawed, briefly homogenised using an Ultra-Turrax T25 homogeniser and diluted in Tris-HCl assay buffer containing NaCl, CaCl2, MgCl2, KCl (50, 120, 2, 1, and 5 mM respectively, adjusted to pH 7.7 with HCl) to an appropriate protein concentration optimised for specific and non-specific binding. Radioligand [^3H]Spiperone (NEN, specific activity ˜70 Ci/mmol) was diluted in assay buffer at a concentration of 2 nmol/L. Prepared radioligand (50 μl), along with 50 μl of either the 10% DMSO control, Butaclamol (10^−6 mol/l final concentration), or compound of interest, was then incubated (30 min, 37° C.) with 400 μl of the prepared membrane solution. Membrane-bound activity was filtered through a Packard Filtermate harvester onto GF/B Unifilterplates and washed with ice-cold Tris-HCl buffer (50 mM; pH 7.7; 6×0.5 ml). Filters were allowed to dry before adding scintillation fluid and counting in a Topcount scintillation counter. Percentage specific bound and competition binding curves were calculated using S-Plus software (Insightful).

[3] = target: T3, NET (norepinephrine transporter) (Rattus norvegicus, UniProt Q63380); assay: In vitro determination of NET reuptake inhibition ([3H]Nixosetine binding, rat brain cortex); conditions: rat brain cortex; for IC50: read-out: NET pIC50 (converted)
T3 construct: Cortex from rat brain was collected and homogenised; from tissue; host or cells: rat brain cortex
Experimental: In Vitro Determination of NET Reuptake Inhibition
Cortex from rat brain was collected and homogenised using an Ultra-Turrax T25 and a Dual homogeniser in ice-cold homogenising buffer containing Tris, NaCl and KCl (50 mM, 120 mM and 5 mM, respectively, pH 7.4) prior to dilution to an appropriate protein concentration optimised for specific and non-specific binding. […] Membrane-bound activity was detected by filtration through a Packard Filtermate harvester onto GF/B Unifilterplates, washed with ice-cold Tris-HCl buffer, containing NaCl and KCl (50 mM, 120 mM and 4 mM; pH 7.4; 6×0.5 ml). Filters were allowed to dry for 24 h before adding scintillation fluid. Scintillation fluid was allowed to saturate filters for 24 h before counting in a Topcount scintillation counter. Percentage specific bound and competition binding curves were calculated using S-Plus software (Insightful).

T2 sequence (P14416 whole entry): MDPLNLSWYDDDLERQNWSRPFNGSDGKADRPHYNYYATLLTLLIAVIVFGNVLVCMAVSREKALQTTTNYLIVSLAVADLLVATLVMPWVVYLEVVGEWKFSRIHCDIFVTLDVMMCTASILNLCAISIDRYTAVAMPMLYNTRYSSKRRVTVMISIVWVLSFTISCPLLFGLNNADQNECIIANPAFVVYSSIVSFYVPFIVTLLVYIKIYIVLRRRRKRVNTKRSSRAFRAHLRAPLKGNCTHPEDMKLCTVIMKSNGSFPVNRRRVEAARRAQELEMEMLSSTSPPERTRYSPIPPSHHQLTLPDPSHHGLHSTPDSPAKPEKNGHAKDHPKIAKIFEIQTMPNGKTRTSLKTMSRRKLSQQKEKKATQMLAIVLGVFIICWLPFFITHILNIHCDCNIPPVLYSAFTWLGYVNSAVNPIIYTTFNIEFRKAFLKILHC
T3 sequence (Q63380 1-617): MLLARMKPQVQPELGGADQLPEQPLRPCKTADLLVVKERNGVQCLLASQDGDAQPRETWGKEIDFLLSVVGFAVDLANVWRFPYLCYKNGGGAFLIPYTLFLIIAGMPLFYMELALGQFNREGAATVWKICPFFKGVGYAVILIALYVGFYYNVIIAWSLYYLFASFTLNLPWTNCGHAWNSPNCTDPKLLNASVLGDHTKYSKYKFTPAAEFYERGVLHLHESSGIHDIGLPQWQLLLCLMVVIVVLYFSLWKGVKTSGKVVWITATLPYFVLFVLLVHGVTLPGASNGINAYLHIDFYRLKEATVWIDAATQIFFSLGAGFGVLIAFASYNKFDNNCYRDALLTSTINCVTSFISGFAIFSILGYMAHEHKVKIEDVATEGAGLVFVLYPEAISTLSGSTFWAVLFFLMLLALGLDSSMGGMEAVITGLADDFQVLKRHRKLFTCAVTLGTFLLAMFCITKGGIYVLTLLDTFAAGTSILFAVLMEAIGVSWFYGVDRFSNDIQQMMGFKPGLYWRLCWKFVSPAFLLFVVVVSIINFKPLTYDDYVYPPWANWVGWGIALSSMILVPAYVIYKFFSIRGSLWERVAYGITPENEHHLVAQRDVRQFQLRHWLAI

IC50 [1]	IC50 [2]	IC50 [3]	SMILES	5-HT2C pIC50 [1]	D2L pIC50 [2]	NET pIC50 [3]
11.2 nM	6.03 nM	5250 nM	Cc1cccc(C(=O)NC2CCN(CC3CC4c5ccccc5Cc5ccc(F)cc5C4O3)CC2)c1 (stereo not drawn) [Compound 225]	–	–	–
4.17 nM	17 nM	3800 nM	OCCC1CCCN(CC2CC3c4ccccc4Cc4ccc(F)cc4C3O2)C1 (mixture of isomers) [Compound 152]	–	–	–
9.77 nM	4.79 nM	4070 nM	O=C(NC1CCN(CC2CC3c4ccccc4Cc4ccc(F)cc4C3O2)CC1)c1ccccc1F (stereo not drawn) [Compound 232]	–	–	–
4.17 nM	7.94 nM	7410 nM	COC(=O)NC1CCN(CC2CC3c4ccccc4Cc4ccc(F)cc4C3O2)CC1 (stereo not drawn) [Compound 210]	–	–	–
1.17 nM	7.76 nM	> 10000 nM	O=C(Nc1ccccc1F)C1CCN(CC2CC3c4ccccc4Cc4ccc(F)cc4C3O2)CC1 (stereo not drawn) [Compound 189]	–	–	–
5.75 nM	10.2 nM	5620 nM	O=C(NC1CCN(C[C@H]2C[C@@H]3c4ccccc4Cc4ccc(F)cc4[C@@H]3O2)CC1)OCc1ccccc1Cl [Compound 218]	–	–	–
5.01 nM	14.1 nM	2750 nM	O=C(NCc1cccc(I)c1)C1CCN(CC2CC3c4ccccc4Cc4ccc(F)cc4C3O2)CC1 (stereo not drawn) [Compound 196]	–	–	–
1.45 nM	5.01 nM	9120 nM	O=C(NCc1ccco1)C1CCN(CC2CC3c4ccccc4Cc4ccc(F)cc4C3O2)CC1 (stereo not drawn) [Compound 194]	–	–	–
7.59 nM	2.88 nM	5500 nM	CCOC(=O)CC1CCN(CC2CC3c4ccccc4Cc4ccc(F)cc4C3O2)CC1 (stereo not drawn) [Compound 164, [2R-(2α, 3aα, 12bβ)][1-(11-fluoro-3,3a,8,12b-tetrahydro-2H-1-oxa-dibenzo[e,h]-azulen-2-ylmethyl)-piperidin-4-yl]-acetic acid ethyl ester.oxalate (1:1)]	–	–	–
30.9 nM	14.8 nM	5250 nM	O=C(NC1CCN(CC2CC3c4ccccc4Cc4ccc(F)cc4C3O2)CC1)c1cccc(C(F)(F)F)c1 (stereo not drawn) [Compound 233]	–	–	–
2.14 nM	4.27 nM	5370 nM	O=C(NC1CCN(CC2CC3c4ccccc4Cc4ccc(F)cc4C3O2)CC1)C1CC1 (stereo not drawn) [Compound 220]	–	–	–
9.33 nM	40.7 nM	1700 nM	CC(C)(C)OC(=O)N1CCN(C(=O)C2CCN(CC3CC4c5ccccc5Cc5ccc(F)cc5C4O3)CC2)CC1 (stereo not drawn) [Compound 206]	–	–	–
10.7 nM	1.86 nM	8510 nM	O=C(NC1CCN(CC2CC3c4ccccc4Cc4ccc(F)cc4C3O2)CC1)c1cccc(F)c1 (stereo not drawn) [Compound 231]	–	–	–
2.88 nM	14.5 nM	> 10000 nM	CCOC(=O)C1CCCN(C[C@H]2C[C@@H]3c4ccccc4Cc4ccc(F)cc4[C@@H]3O2)C1 (stereo partly drawn) [Compound 160]	–	–	–
1.23 nM	1.35 nM	> 10000 nM	OCC1CCN(CC2CC3c4ccccc4Cc4ccc(F)cc4C3O2)CC1 (stereo not drawn) [Compound 151]	–	–	–
–	–	–	CC1c2ccccc2C2CC(CN3CCC(O)C3)OC2c2cc(F)ccc21.O=C(O)C(=O)O (mixture of isomers) [Compound 45]	8.66	6.46	7.33
23.4 nM	17.8 nM	8510 nM	O=C(NC1CCN(CC2CC3c4ccccc4Cc4ccc(F)cc4C3O2)CC1)c1cc2ccccc2s1 (stereo not drawn) [Compound 223]	–	–	–

IC50 [1]	IC50 [2]	IC50 [3]	SMILES	5-HT2C pIC50 [1]	D2L pIC50 [2]	NET pIC50 [3]
2.69 nM	3.31 nM	3550 nM	O=C(Nc1ccccc1)NC1CCN(CC2CC3c4ccccc4Cc4ccc(F)cc4C3O2)CC1 (stereo not drawn) [Compound 247]	–	–	–
–	–	–	O=C(O)C(=O)O.O[C@H]1CCN(C[C@H]2C[C@@H]3c4ccccc4Cc4ccc(F)cc4[C@@H]3O2)C1 [Compound 3]	9.57	8.01	5.45
0.692 nM	4.79 nM	> 10000 nM	OC1CCN(C[C@H]2C[C@@H]3c4ccccc4Cc4ccc(F)cc4[C@@H]3O2)CC1 [Compound 144, [2R-(2α, 3aα, 12bβ)]1-(11-fluoro-3,3a,8,12b-tetrahydro-2H-1-oxa-dibenzo[e,h]azulen-2-ylmethyl)-piperidin-4-ol.oxalate (1:1)]	–	–	–
4.27 nM	4.57 nM	8910 nM	CCCNC(=O)NC1CCN(C[C@H]2C[C@@H]3c4ccccc4Cc4ccc(F)cc4[C@@H]3O2)CC1 [Compound 244]	–	–	–
24.5 nM	56.2 nM	> 10000 nM	COc1ccc(NC(=O)CC2CN(C[C@H]3C[C@@H]4c5ccccc5Cc5ccc(F)cc5[C@@H]4O3)CCO2)cc1 (stereo partly drawn) [Compound 139]	–	–	–
20 nM	12.3 nM	3470 nM	Fc1ccc2c(c1)C1OC(CN3CCC(NC(=S)Nc4cccnc4)CC3)CC1c1ccccc1C2 (stereo not drawn) [Compound 254]	–	–	–
6.17 nM	2.09 nM	3800 nM	N#Cc1ccc(NC(=O)NC2CCN(CC3CC4c5ccccc5Cc5ccc(F)cc5C4O3)CC2)cc1 (stereo not drawn) [Compound 248]	–	–	–
6.46 nM	5.5 nM	7760 nM	O=C(CSc1ccccc1)NC1CCN(CC2CC3c4ccccc4Cc4ccc(F)cc4C3O2)CC1 (stereo not drawn) [Compound 241]	–	–	–
1 nM	4.57 nM	8510 nM	O=C(NCc1ccccn1)C1CCN(CC2CC3c4ccccc4Cc4ccc(F)cc4C3O2)CC1 (stereo not drawn) [Compound 197]	–	–	–
20.4 nM	37.2 nM	3890 nM	O=C(Nc1ccccc1Oc1ccccc1)NC1CCN(CC2CC3c4ccccc4Cc4ccc(F)cc4C3O2)CC1 (stereo not drawn) [Compound 250]	–	–	–
7.94 nM	22.9 nM	> 10000 nM	N#CC1(c2ccccc2)CCN(C(=O)C2CCN(CC3CC4c5ccccc5Cc5ccc(F)cc5C4O3)CC2)CC1 (stereo not drawn) [Compound 208]	–	–	–
13.5 nM	18.6 nM	9120 nM	COc1cc(C(=O)NC2CCN(CC3CC4c5ccccc5Cc5ccc(F)cc5C4O3)CC2)cc(OC)c1OC (stereo not drawn) [Compound 235]	–	–	–
12.9 nM	3.39 nM	> 10000 nM	CC(=O)N1CCC(C(=O)NC2CCN(CC3CC4c5ccccc5Cc5ccc(F)cc5C4O3)CC2)CC1 (stereo not drawn) [Compound 224]	–	–	–
19.5 nM	15.1 nM	> 10000 nM	Cc1onc(-c2ccccc2Cl)c1C(=O)NC1CCN(CC2CC3c4ccccc4Cc4ccc(F)cc4C3O2)CC1 (stereo not drawn) [Compound 222]	–	–	–
1.62 nM	5.5 nM	7760 nM	O=C(NCc1cccs1)C1CCN(CC2CC3c4ccccc4Cc4ccc(F)cc4C3O2)CC1 (stereo not drawn) [Compound 195]	–	–	–
10.7 nM	15.5 nM	> 10000 nM	CC(C)c1ccccc1NC(=O)C1CCN(CC2CC3c4ccccc4Cc4ccc(F)cc4C3O2)CC1 (stereo not drawn) [Compound 185]	–	–	–
1.15 nM	16.6 nM	4790 nM	OC1CCCN(CC2CC3c4ccccc4Cc4ccc(F)cc4C3O2)C1 (racemic) [Compound 141]	–	–	–

Reference: patent US8569267B2, “Tetracyclic tetrahydrofuran derivatives containing cyclic amine side chain” (Janssen Pharmaceutica, NV, priority 2005, dated 2013)
